Test results published in patent publication US20230233533A1, “COMPOSITIONS, METHODS OF TREATING AND PREVENTING FUNGAL INFECTIONS, AND METHODS OF INHIBITING PRP8 INTEIN EXPRESSION” (Health Research, Inc., priority 2020, published 2023).
≈ marks a conversion by molar mass, not a printed value. Where “and” joins values, the source holds several entries; their conditions need not be identical. Equal values may be shown once. Read-outs that look alike come from different tables or passages of the source.

How the values were obtained:
Prp8 intein [1] = target: T1, Prp8 intein (Cryptococcus gattii, UniProt E6R027); assay: Split Renilla luciferase RLuc-Prp8 intein splicing assay; format: biochemical; conditions: compound at 20 μM
T1 sequence (E6R027 entry or part of it): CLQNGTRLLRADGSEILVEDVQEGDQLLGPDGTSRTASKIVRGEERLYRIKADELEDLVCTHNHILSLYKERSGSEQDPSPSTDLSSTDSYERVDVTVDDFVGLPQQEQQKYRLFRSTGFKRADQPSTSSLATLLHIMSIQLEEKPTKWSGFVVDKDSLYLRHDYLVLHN

Prp8 intein [2] = target: T1, Prp8 intein; assay: MIG-Prp8 in-gel splicing assay; format: biochemical; conditions: E. coli lysate, TCEP-triggered
Experimental: The MIG-Prp8 and Prp8-GFP in-gel splicing assays—The MIG Prp8 and Prp8-GFP splicing assays were carried out as described. […] The samples were analyzed in SDS-PAGE without boiling. The gels were quantified using GFP fluorescence and Coomassie blue staining with the Bio-Rad Gel Doc EZ.
This reporter system, MIG-Prp8, comprising a fusion protein of the Prp8 intein flanked by maltose binding protein (MBP) and green fluorescent protein (GFP), allowed observation of functional Prp8 intein splicing in Escherichia coli lysate. […] C-terminal cleavage product (CC; GFP) could also be visualized.

in vitro = format: cell-based, human; conditions: human, CC50 A549
Method in brief: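 A549 cells (5×10^3 per well) were exposed to compounds at 37 °C for 48 h, and viability was read by MTT assay; N=3.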

C. neoformans H99 strain = assay: Fungal susceptibility test, broth microdilution MIC; format: cell-based, Cryptococcus neoformans; conditions: for MIC: Cryptococcus neoformans, H99STRAIN
Method in brief: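 Compound MICs were determined by broth microdilution using a compound concentration series.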

C. neoformans H99 = assay: Checkerboard assay; format: cell-based, Cryptococcus neoformans
Experimental: Compounds were initially dissolved in DMSO and diluted in RPMI-1640-MOPS media four times the targeted final concentration and 50 μl was added per well. The second compound was similarly diluted and 50 μl was added per well, to a final volume of 100 μl/well. C. neoformans […] inoculum (100 μl) prepared from freshly grown cultures and diluted to an absorbance of 0.1 at 530 nm in water and further diluted (1:500) in RPMI-1640-MOPS was added to each well. To determine the fungicidal concentration of a compound, the wells with no visible growth were serially diluted, plated on SDA, and incubated at 30° C. for 48-72 h for the recovery of colony-forming units. Additionally, the cell density of treated and untreated wells was also estimated by reading absorbance at 630 nm using an EL808 reader (Bio-Tek). Percentage of inhibition compared to that of the no-drug-control well was calculated. […] Fractional inhibitory concentration (FIC) index value is calculated as the […]. The FIC index value is then used to categorize the interaction of the two compounds tested. […] Doern, C., “When Does 2 plus 2 Equal 5?A Review of Antimicrobial Synergy Testing,” Journal of Clinical Microbiology 52(12):4124-4128 (2014), which is hereby incorporated by reference in its entirety.

With `O=C(Nc1ccc(F)cc1)c1nnsc1S(=O)(=O)c1ccc(Cl)cc1` [6G-318S, 5-[(4-chlorophenyl)sulfonyl]-N-(4-fluorophenyl)-1,2,3-thiadiazole-4-carboxamide] the “suppression of RLuc-Prp8 intein splicing activity” value (Prp8 intein [1]) was “greater than 50%”, the “inhibition of MIG-Prp8 splicing” value (Prp8 intein [2]) was “accumulation of the MIG-Prp8 precursor PP and decrease of LE product in a dose-dependent manner” and the CC50 at 48 h (in vitro) was 13.9 µg/mL and ~35 µM. It also gave an MIC (C. neoformans H99 strain; C. neoformans H99, microbroth dilution, read-out: MIC H99) of 1.56 µM, an MIC (C. neoformans H99 strain; C. neoformans and other related species, read-out: minimum inhibitory concentration (MIC) 90) of 0.6 to 1 µg/mL and an MIC (C. neoformans H99 strain; H99 strain, 48 h, 30° C., read-out: MIC C. neoformans) of 0.62 µg/mL. For the same compound, the “MIC C. neoformans” value (C. neoformans H99 strain; H99 strain, 48 h, 30° C.) was 0.6 µg/mL (≈ 1.51 µM), the MIC (C. neoformans H99; Cryptococcus neoformans, H99, 48 h) was 1 µg/mL and the Effect (C. neoformans H99; combination 6G-318S + 5-FC) was “Additive (>0.5 to 1 is additive)”. For the same compound, the MIC-comb (C. neoformans H99; combination 6G-318S + 5-FC, well D6) was 0.500 µg/mL, the Effect (C. neoformans H99; combination 6G-318S + AmB) was “Synergistic (FIC index value of ≤0.5 is considered as synergy)” and the MIC-comb (C. neoformans H99; combination 6G-318S + AmB, well F6) was 0.125 µg/mL. For the same compound, the Effect (C. neoformans H99; combination 6G-318S + IZ) was “Additive (>0.5 to 1 is additive)”, the MIC-comb (C. neoformans H99; combination 6G-318S + IZ, well D6) was 0.500 µg/mL and the Effect (C. neoformans H99; combination 6G-318S + Vor) was “Indifferent (>1 to 4 is indifferent)”. It also gave an MIC-comb (C. neoformans H99; combination 6G-318S + Vor, well G3) of 0.063 µg/mL.
